Assay results published in article PMC8550792, “Evolution of kinase polypharmacology across HSP90 drug discovery” (Cell Chemical Biology, 2021).

Legend:
Assay in all cases: biochemical
Assay type in all cases: biochemical
[1] = target: T1, 382 unique human kinases (Homo sapiens, UniProt P22694); settings: kinase PKAcb, compound 10 uM; for remaining activity at 10 µM: read-out: % Enzyme Activity (relative to DMSO controls)
T1 construct: purchased Reaction Biology (HotSpot contract assay)

[2] = target: T2, 382 unique human kinases (Homo sapiens, UniProt Q9Y4K4); settings: kinase KHS/MAP4K5, compound 10 uM; for remaining activity at 10 µM: read-out: % Enzyme Activity (relative to DMSO controls)
T2 construct: purchased Reaction Biology (HotSpot contract assay)

[3] = target: T3, 382 unique human kinases (Homo sapiens, UniProt P22455); settings: FGFR4, 10 uM; for remaining activity at 10 µM: read-out: % Enzyme Activity (relative to DMSO controls)
T3 construct: purchased Reaction Biology (HotSpot contract assay)

[4] = target: T4, 382 unique human kinases (Homo sapiens, UniProt Q8TDX7); settings: NEK7, compound at 10 uM, duplicate values; for remaining activity at 10 µM: read-out: % Enzyme Activity (relative to DMSO controls)
T4 construct: purchased Reaction Biology (HotSpot contract assay)

[5] = target: T5, 382 unique human kinases (Homo sapiens, UniProt P06213); settings: kinase IR, compound 10 uM; for remaining activity at 10 µM: read-out: % Enzyme Activity (relative to DMSO controls)
T5 construct: purchased Reaction Biology (HotSpot contract assay)

[6] = target: T6, 382 unique human kinases (Homo sapiens, UniProt Q15118); settings: PDK1/PDHK1, [ATP] 50 µM, compound 10 uM; for remaining activity at 10 µM: read-out: % Enzyme Activity (relative to DMSO controls)
T6 construct: purchased Reaction Biology (HotSpot contract assay)

[7] = target: T7, 382 unique human kinases (Homo sapiens, UniProt P49761); settings: CLK3, [ATP] 30 µM, compound 10 uM; for remaining activity at 10 µM: read-out: % Enzyme Activity (relative to DMSO controls)
T7 construct: purchased Reaction Biology (HotSpot contract assay)

[8] = target: T8, 382 unique human kinases (Homo sapiens, UniProt P00519, Y253F); settings: ABL1 (Y253F), [ATP] 15 µM, compound 10 uM; for remaining activity at 10 µM: read-out: % Enzyme Activity (relative to DMSO controls)
T8 construct: purchased Reaction Biology (HotSpot contract assay)

[9] = target: T9, 382 unique human kinases (Homo sapiens, UniProt Q9BYP7); settings: WNK3, 10 uM; for remaining activity at 10 µM: read-out: % Enzyme Activity (relative to DMSO controls)
T9 construct: purchased Reaction Biology (HotSpot contract assay)

[10] = target: T10, 382 unique human kinases (Homo sapiens, UniProt O15530); settings: PDK1/PDPK1, 10 uM; for remaining activity at 10 µM: read-out: % Enzyme Activity (relative to DMSO controls)
T10 construct: purchased Reaction Biology (HotSpot contract assay)
T10 sequence (O15530 1-556): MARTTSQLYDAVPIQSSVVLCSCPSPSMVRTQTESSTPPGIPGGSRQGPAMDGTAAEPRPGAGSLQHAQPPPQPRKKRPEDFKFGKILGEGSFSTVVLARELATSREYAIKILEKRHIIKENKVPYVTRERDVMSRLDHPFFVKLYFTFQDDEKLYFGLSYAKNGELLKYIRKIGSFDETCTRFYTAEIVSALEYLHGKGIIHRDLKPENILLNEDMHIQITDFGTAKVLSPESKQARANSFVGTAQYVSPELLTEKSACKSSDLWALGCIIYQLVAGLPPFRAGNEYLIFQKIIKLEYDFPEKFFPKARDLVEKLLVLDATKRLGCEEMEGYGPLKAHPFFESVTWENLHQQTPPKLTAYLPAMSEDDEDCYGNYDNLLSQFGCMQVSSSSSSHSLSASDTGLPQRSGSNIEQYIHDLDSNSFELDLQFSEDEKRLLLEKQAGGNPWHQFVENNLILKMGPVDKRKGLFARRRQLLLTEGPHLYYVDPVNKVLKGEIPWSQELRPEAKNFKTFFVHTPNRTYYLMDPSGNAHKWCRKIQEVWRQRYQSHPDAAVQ

[11] = target: T11, 382 unique human kinases (Homo sapiens, UniProt P29323); settings: EPHB2, [ATP] 30 µM, compound 10 uM; for remaining activity at 10 µM: read-out: % Enzyme Activity (relative to DMSO controls)
T11 construct: purchased Reaction Biology (HotSpot contract assay)
T11 sequence (P29323 19-1055): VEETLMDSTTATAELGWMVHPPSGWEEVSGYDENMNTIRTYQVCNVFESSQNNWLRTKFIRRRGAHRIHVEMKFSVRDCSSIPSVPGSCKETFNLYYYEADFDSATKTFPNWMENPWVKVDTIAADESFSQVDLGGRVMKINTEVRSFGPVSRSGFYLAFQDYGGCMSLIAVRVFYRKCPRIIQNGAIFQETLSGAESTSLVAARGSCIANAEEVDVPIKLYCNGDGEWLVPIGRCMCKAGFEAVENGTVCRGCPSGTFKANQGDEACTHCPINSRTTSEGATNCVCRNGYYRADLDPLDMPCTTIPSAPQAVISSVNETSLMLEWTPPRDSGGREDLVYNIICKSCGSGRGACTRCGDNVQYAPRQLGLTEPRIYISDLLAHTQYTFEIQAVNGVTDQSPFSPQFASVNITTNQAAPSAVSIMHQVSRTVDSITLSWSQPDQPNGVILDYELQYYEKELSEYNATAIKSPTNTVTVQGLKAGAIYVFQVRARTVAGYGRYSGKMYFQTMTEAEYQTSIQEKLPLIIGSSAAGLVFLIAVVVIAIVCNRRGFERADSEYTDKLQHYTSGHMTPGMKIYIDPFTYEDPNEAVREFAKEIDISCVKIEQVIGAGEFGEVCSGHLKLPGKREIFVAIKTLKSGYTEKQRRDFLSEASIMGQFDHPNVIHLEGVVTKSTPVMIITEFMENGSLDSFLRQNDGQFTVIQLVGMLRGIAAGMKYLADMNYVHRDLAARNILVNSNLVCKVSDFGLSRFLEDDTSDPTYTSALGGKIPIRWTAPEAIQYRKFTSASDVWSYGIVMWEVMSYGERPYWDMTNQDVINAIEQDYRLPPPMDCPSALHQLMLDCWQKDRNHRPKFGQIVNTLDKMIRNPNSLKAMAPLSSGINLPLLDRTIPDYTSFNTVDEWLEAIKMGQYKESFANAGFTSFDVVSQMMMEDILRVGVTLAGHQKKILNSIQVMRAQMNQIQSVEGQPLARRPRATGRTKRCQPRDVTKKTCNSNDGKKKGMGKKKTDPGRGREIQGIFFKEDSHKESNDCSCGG

[12] = target: T12, 382 unique human kinases (Homo sapiens, UniProt Q9Y6E0); settings: MST3/STK24, [ATP] 20 µM, compound 10 uM; for remaining activity at 10 µM: read-out: % Enzyme Activity (relative to DMSO controls)
T12 construct: purchased Reaction Biology (HotSpot contract assay)

[13] = target: T13, 382 unique human kinases (Homo sapiens, UniProt Q5TCY1); settings: TTBK1, 10 uM; for remaining activity at 10 µM: read-out: % Enzyme Activity (relative to DMSO controls)
T13 construct: purchased Reaction Biology (HotSpot contract assay)

[14] = target: T14, 382 unique human kinases (Homo sapiens, UniProt P78368); settings: CK1g2, 10 uM; for remaining activity at 10 µM: read-out: % Enzyme Activity (relative to DMSO controls)
T14 construct: purchased Reaction Biology (HotSpot contract assay)

[15] = target: T15, 382 unique human kinases (Homo sapiens, UniProt P27448); settings: MARK3, 10 uM; for remaining activity at 10 µM: read-out: % Enzyme Activity (relative to DMSO controls)
T15 construct: purchased Reaction Biology (HotSpot contract assay)

[16] = target: T16, 382 unique human kinases (Homo sapiens, UniProt P23458); settings: JAK1, 10 uM; for remaining activity at 10 µM: read-out: % Enzyme Activity (relative to DMSO controls)
T16 construct: purchased Reaction Biology (HotSpot contract assay)

T5 sequence (P06213 28-1382): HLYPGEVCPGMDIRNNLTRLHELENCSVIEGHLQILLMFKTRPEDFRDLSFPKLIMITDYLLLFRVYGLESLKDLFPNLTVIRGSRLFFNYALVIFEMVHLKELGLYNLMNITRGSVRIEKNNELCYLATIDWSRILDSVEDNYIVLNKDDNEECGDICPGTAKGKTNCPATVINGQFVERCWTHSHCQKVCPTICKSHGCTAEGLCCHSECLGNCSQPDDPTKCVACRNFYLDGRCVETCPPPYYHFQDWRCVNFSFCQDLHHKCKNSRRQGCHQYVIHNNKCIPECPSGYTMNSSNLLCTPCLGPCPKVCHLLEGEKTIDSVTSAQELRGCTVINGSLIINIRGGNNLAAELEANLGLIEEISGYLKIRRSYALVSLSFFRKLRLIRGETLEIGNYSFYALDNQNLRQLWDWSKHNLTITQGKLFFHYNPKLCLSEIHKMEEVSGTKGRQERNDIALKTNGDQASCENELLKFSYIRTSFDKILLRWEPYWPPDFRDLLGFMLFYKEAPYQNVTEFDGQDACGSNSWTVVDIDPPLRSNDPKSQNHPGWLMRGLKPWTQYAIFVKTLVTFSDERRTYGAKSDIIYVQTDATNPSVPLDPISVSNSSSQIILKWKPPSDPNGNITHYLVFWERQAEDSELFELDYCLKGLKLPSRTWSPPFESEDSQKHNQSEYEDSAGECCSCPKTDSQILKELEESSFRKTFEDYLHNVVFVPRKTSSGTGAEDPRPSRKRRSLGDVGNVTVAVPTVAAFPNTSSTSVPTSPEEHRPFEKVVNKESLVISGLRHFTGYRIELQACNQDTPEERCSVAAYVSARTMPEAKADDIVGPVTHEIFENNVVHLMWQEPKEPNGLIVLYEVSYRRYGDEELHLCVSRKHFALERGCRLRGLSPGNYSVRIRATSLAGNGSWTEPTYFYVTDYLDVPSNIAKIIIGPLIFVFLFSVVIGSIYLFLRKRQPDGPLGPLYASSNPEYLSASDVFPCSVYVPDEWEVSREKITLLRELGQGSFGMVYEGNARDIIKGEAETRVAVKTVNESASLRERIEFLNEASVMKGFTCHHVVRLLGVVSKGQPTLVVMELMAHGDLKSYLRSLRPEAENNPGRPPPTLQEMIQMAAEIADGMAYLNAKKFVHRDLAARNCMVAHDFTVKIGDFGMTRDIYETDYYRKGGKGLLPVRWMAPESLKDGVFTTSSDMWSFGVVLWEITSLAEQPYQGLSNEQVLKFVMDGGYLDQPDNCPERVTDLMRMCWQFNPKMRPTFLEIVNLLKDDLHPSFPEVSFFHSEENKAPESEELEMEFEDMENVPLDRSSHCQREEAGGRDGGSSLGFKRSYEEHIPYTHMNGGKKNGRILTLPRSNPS
T15 sequence (P27448 whole entry): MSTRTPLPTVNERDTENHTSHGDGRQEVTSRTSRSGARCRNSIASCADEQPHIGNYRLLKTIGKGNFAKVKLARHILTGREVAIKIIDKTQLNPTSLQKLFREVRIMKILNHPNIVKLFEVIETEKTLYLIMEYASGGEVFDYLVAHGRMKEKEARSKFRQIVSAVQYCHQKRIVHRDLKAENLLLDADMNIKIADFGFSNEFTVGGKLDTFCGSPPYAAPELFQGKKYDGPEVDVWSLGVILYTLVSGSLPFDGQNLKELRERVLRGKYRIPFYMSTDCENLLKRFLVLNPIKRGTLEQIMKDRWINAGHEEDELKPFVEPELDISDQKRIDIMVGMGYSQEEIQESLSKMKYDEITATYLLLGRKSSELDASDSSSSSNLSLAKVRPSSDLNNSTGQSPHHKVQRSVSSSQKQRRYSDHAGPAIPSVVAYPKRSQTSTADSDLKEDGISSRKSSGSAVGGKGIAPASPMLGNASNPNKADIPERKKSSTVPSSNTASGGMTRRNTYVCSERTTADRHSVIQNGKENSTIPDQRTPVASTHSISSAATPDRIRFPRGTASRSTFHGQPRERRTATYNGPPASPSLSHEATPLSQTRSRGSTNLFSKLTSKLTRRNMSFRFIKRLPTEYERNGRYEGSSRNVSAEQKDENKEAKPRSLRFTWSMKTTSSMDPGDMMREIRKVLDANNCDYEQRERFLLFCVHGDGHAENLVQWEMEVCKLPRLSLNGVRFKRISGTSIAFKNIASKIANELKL
T14 sequence (P78368 whole entry): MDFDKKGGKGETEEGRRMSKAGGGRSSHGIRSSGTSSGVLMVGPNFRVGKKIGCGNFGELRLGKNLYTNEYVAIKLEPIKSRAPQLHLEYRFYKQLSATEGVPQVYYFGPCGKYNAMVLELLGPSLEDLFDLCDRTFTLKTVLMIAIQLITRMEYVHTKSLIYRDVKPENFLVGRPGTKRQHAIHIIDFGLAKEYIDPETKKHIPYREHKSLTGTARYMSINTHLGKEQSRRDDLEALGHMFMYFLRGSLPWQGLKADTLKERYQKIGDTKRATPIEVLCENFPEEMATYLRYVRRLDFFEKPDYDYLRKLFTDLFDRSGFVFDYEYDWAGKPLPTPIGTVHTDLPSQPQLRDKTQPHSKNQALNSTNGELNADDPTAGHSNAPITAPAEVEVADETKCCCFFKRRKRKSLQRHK
T6 sequence (Q15118 29-436): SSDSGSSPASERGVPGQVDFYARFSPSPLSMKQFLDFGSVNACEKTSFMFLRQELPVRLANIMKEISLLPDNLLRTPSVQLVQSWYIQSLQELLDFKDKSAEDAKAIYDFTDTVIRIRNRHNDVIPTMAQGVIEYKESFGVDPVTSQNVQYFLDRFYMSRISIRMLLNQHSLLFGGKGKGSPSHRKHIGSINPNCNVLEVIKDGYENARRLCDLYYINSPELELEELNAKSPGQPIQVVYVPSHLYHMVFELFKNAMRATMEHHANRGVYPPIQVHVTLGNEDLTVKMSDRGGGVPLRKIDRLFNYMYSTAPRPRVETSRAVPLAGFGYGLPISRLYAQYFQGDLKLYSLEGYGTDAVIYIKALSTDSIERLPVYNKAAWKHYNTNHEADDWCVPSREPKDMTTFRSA
T2 sequence (Q9Y4K4 whole entry): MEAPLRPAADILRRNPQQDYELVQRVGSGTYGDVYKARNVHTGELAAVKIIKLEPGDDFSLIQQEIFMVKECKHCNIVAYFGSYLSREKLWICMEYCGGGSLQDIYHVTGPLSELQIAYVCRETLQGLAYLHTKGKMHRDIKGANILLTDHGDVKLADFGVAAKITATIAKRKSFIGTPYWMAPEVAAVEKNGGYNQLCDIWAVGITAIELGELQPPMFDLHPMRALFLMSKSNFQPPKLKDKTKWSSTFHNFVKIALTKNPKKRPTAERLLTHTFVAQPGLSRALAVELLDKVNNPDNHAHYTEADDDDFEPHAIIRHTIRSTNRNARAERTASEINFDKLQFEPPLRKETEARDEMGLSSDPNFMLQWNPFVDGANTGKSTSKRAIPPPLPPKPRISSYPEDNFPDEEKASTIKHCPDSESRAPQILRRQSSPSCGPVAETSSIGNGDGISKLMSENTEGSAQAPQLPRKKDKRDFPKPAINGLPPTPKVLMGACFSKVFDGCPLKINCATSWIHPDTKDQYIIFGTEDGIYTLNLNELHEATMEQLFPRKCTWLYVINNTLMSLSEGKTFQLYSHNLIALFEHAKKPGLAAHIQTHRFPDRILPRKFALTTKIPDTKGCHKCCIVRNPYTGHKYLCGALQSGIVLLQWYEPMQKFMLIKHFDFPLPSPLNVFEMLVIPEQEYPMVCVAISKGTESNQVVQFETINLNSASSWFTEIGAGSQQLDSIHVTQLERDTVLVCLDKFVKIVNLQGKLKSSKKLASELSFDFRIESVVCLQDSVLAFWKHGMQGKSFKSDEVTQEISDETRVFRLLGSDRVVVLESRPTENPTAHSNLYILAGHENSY
T3 sequence (P22455 22-802): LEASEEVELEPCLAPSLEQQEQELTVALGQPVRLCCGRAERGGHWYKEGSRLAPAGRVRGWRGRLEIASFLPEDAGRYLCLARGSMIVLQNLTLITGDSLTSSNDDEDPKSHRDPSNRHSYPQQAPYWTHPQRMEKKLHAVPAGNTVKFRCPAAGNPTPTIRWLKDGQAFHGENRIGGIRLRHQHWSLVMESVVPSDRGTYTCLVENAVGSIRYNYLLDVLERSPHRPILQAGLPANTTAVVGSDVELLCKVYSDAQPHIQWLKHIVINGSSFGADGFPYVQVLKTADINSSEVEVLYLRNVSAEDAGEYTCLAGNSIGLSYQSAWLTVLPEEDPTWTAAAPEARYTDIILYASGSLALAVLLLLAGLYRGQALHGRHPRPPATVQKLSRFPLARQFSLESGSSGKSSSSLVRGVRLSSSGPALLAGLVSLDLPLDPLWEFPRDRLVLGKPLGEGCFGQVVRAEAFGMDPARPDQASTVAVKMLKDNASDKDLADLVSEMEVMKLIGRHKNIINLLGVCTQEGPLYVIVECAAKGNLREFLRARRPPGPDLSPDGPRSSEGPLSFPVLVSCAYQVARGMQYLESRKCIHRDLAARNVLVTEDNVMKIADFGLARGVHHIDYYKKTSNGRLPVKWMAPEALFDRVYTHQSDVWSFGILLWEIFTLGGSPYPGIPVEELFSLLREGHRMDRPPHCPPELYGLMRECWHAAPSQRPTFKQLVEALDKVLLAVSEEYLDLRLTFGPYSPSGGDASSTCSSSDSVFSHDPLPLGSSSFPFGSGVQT
T4 sequence (Q8TDX7 whole entry): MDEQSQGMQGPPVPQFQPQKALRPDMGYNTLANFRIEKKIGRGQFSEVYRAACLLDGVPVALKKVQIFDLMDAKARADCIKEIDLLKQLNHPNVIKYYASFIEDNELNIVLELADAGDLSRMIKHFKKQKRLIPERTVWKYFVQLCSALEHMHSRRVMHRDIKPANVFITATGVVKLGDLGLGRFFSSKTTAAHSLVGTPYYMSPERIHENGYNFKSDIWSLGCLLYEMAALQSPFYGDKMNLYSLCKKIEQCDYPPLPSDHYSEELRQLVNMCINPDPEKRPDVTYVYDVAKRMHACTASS

Compound | remaining activity at 10 µM [1] [%] | remaining activity at 10 µM [2] [%] | remaining activity at 10 µM [3] [%] | remaining activity at 10 µM [4] [%] | remaining activity at 10 µM [5] [%] | remaining activity at 10 µM [6] [%] | remaining activity at 10 µM [7] [%] | remaining activity at 10 µM [8] [%] | remaining activity at 10 µM [9] [%] | remaining activity at 10 µM [10] [%] | remaining activity at 10 µM [11] [%] | remaining activity at 10 µM [12] [%] | remaining activity at 10 µM [13] [%] | remaining activity at 10 µM [14] [%] | remaining activity at 10 µM [15] [%] | remaining activity at 10 µM [16] [%] | also measured
CC(C)c1cc(-c2n[nH]c(=O)n2-c2ccc3c(ccn3C)c2)c(O)cc1O [Ganetespib (STA9090)] | 96.3 | 80.6 | 71.5 | 113 | 87 | – | – | – | – | – | – | – | – | – | – | – | –
CC(C)c1cc(-c2n[nH]c(=O)n2-c2ccc3c(ccn3C)c2)c(O)cc1O [Ganetespib] | – | – | – | – | – | 54.4 | 39 | 3.72 | 98.1 | 99.4 | 45.3 | 72.1 | 101 | 110 | 100 | 95 | –
CCNC(=O)c1noc(-c2cc(C(C)C)c(O)cc2O)c1-c1ccc(CN2CCOCC2)cc1 [Luminespib (AUY-922)] | 103 | 93.5 | 97.1 | 116 | 96.8 | – | – | – | – | – | – | – | – | – | – | – | % Enzyme Activity (relative to DMSO controls) [1]: 100.86%; % Enzyme Activity (relative to DMSO controls) [2]: 91.62%; % Enzyme Activity (relative to DMSO controls) [3]: 96.06%; % Enzyme Activity (relative to DMSO controls) [4]: 116.20%; % Enzyme Activity (relative to DMSO controls) [5]: 96.77%
CCNC(=O)c1noc(-c2cc(C(C)C)c(O)cc2O)c1-c1ccc(CN2CCOCC2)cc1 [Luminespib] | – | – | – | – | – | 60 | 46.6 | 5.44 | 112 | 102 | 63.2 | 60 | 109 | 99.4 | 111 | 96.1 | % Enzyme Activity (relative to DMSO controls) [6]: 56.21%; % Enzyme Activity (relative to DMSO controls) [7]: 45.99%; % Enzyme Activity (relative to DMSO controls) [8]: 4.48%; % Enzyme Activity (relative to DMSO controls) [9]: 110.27%; % Enzyme Activity (relative to DMSO controls) [10]: 101.64%; % Enzyme Activity (relative to DMSO controls) [11]: 61.81%; % Enzyme Activity (relative to DMSO controls) [12]: 58.15%; % Enzyme Activity (relative to DMSO controls) [13]: 109.07%; % Enzyme Activity (relative to DMSO controls) [14]: 97.43%; % Enzyme Activity (relative to DMSO controls) [15]: 108.05%; % Enzyme Activity (relative to DMSO controls) [16]: 94.10%
